Marks after values point to notes of the source that are not given here.
Columns and labels:
peritoneal macrophages = assay: Intracellular calcium concentration and Ca2+ signals in peritoneal macrophages (Fura-2AM); type: cell-based, rat
male rats with cytopenia = assay: General blood analysis of male rats with cytopenia after application of cyclophosphane; type: in vivo, rat; details: doses mg/kg: cysteine 9.5, lithium carbonate 3, C-Li 10, Fe-C-Li:C-Li 10
herpes type 2 (HSV-2) = assay: Generalized herpetic infection of white mice; type: in vivo; details: mice infected with HSV-2
[1] = tested on: Chlamydia trachomatis, strain L-2; assay: Experimental generalized chlamydial infection of white mice; type: in vivo
[2] = target: T1, epidermal growth factor receptor (Homo sapiens, UniProt P00533); assay: Tyrosine kinase activity of the epidermal growth factor receptor in A431 cells (phosphotyrosine immunoblotting, densitometry); type: cell-based
T1 construct: cells of the human epidermoid carcinoma line A431 have an extraordinarily high level of expression of the epidermal growth factor receptor; endogenous in cells; host or cells: A431 (All-Russian Cell Culture Collection)

[3] = 3 days after cyclophosphane 100 mg/kg
[4] = 7 days after cyclophosphane 100 mg/kg
[5] = 14 days after cyclophosphane 100 mg/kg
[6] = Zovirax 15 mg/kg daily for 14 days
[7] = Zovirax 30 mg/kg daily for 14 days
[8] = mice infected with Chlamydia trachomatis L-2, 2 LD50, 20 mg/kg s.c. daily for 10 days
[9] = mice infected with Chlamydia trachomatis L-2, josamycin 25 mg/kg orally daily for 10 days
[10] = mice infected with Chlamydia trachomatis L-2, josamycin 50 mg/kg orally daily for 10 days
[11] = mice infected with Chlamydia trachomatis L-2, josamycin 100 mg/kg orally daily for 10 days

T1 sequence (P00533 25-1210): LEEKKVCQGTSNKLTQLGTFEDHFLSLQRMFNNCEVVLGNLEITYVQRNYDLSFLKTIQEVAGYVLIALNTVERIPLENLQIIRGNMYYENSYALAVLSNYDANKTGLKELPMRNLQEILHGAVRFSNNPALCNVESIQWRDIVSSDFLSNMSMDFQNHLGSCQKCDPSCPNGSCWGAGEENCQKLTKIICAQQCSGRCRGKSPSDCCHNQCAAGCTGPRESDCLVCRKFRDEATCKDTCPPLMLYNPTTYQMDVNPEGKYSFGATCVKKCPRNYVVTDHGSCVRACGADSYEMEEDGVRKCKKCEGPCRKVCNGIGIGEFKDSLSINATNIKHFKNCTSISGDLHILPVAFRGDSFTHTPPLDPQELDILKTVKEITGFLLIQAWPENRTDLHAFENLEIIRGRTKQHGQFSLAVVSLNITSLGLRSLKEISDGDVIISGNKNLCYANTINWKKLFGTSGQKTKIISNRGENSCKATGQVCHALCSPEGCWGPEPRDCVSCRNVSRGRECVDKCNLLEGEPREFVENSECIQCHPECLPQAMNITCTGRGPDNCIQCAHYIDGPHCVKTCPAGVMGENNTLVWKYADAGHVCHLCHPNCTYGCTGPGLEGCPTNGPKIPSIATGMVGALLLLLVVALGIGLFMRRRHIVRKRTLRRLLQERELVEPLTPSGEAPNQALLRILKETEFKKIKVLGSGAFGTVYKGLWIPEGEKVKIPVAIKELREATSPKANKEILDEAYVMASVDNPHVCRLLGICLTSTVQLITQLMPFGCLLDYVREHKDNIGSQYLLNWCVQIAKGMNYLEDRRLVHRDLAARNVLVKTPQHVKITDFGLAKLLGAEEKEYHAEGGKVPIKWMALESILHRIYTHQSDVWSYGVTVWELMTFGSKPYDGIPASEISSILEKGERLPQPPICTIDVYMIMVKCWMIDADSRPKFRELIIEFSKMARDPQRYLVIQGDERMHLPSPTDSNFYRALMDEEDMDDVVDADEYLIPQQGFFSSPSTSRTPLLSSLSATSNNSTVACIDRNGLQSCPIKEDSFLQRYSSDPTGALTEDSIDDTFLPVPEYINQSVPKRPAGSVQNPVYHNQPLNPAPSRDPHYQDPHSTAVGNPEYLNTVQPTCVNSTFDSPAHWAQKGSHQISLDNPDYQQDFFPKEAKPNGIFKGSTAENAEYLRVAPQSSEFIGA

Row | Structure (SMILES) | ESR (male rats with cytopenia; [3]) | Erythrocytes (male rats with cytopenia; [3]) | Leukocytes (male rats with cytopenia; [3]) | Lymphocytes (male rats with cytopenia; [3]) | Reticulocytes (male rats with cytopenia; [3]) | Segmented neutrophils (male rats with cytopenia; [3]) | Thrombocytes (male rats with cytopenia; [3]) | ESR (male rats with cytopenia; [4]) | Erythrocytes (male rats with cytopenia; [4]) | Leukocytes (male rats with cytopenia; [4]) | Lymphocytes (male rats with cytopenia; [4]) | Segmented neutrophils (male rats with cytopenia; [4]) | Thrombocytes (male rats with cytopenia; [4]) | ESR (male rats with cytopenia; [5]) | Erythrocytes (male rats with cytopenia; [5]) | Leukocytes (male rats with cytopenia; [5]) | Lymphocytes (male rats with cytopenia; [5]) | Reticulocytes (male rats with cytopenia; [5]) | Segmented neutrophils (male rats with cytopenia; [5]) | other results
1 | Nc1ncnc2c1ncn2[C@@H]1O[C@H](COP(=O)(O)OP(=O)(O)OP(=O)(O)O)[C@@H](O)[C@H]1O [ATP] | – | – | – | – | – | – | – | – | – | – | – | – | – | – | – | – | – | – | – | [Ca2+]i peak of the Ca2+ signal (peritoneal macrophages; rat peritoneal macrophages, normal physiological solution, 200 μM ATP, baseline 75±18 nM): 820 ± 105 nM; [Ca2+]i in the plateau phase, on average (peritoneal macrophages; rat peritoneal macrophages, normal physiological solution, 4 min after addition of 200 μM ATP): 460 ± 115 nM
2 | N[C@@H](CS)C(=O)[O-].[Li+] [C—Li, lithium salt of cysteine] | 3.3 ± 0.80 mm/h | 4.0 ± 0.23 10^12/l | 4.38 ± 0.31* 10^9/l | 45 ± 1.6 % | 0.1 ± 0.1 % | 42 ± 1.6 % | 387 ± 17.4 10^9/l | 3.2 ± 0.80 mm/h | 3.2 ± 0.18 10^12/l | 4.8 ± 0.18** 10^9/l | 22 ± 0.9 % | 50.4 ± 0.6 % | 164 ± 10.0** 10^3/l | 2.7 ± 0.49 mm/h | 5.2 ± 0.26 10^12/l | 5.6 ± 0.22** 10^9/l | 72.5 ± 1.4% | 1.3 ± 0.3% | 20.3 ± 2.4 % | Reticulocytes (male rats with cytopenia; [4]): 1.2 ± 0.2%
3 | O=C([O-])[O-].[Li+].[Li+] [Li2HCO3, lithium carbonate] | 2.4 ± 0.42 mm/h | 3.7 ± 0.21 10^12/l | 3.75 ± 0.46* 10^9/l | 62 ± 3.8 % | 0.118 ± 0.01 % | 19.7 ± 3.4 % | 256 ± 45.3 10^9/l | 2.0 ± 0.36 mm/h | 3.6 ± 0.29 10^12/l | 3.22 ± 0.11* 10^9/l | 50.7 ± 1.6 % | 33 ± 1.7 % | 119 ± 12.0** 10^3/l | 2.4 ± 0.65 mm/h | 4.9 ± 0.27 10^12/l | 5.9 ± 0.26** 10^9/l | 69.3 ± 0.9% | 1.4 ± 0.3% | 14.9 ± 2.6 % | Reticulocytes (male rats with cytopenia; [4]): 1.1 ± 0.1%
4 | Nc1nc2c(ncn2COCCO)c(=O)[nH]1 [Zovirax] | – | – | – | – | – | – | – | – | – | – | – | – | – | – | – | – | – | – | – | % mortality (herpes type 2 (HSV-2); [6]): 50%; % protection, (S) (herpes type 2 (HSV-2); [6]): 12.5%; Died/total in group (herpes type 2 (HSV-2); [6]): 8/16; ML (days) (T), mean life (herpes type 2 (HSV-2); [6]): 12.8 days; % mortality (herpes type 2 (HSV-2); [7]): 0%; % protection, (S) (herpes type 2 (HSV-2); [7]): 62.5%; Died/total in group (herpes type 2 (HSV-2); [7]): 0/16; ML (days) (T), mean life (herpes type 2 (HSV-2); [7]): ∞
5 | N[C@@H](CS)C(=O)O [cysteine] | 2.2 ± 0.30 mm/h | 3.0 ± 0.29 10^12/l | 3.26 ± 0.31* 10^9/l | 68 ± 2.8 % | 0.09 ± 0.006 % | 17.6 ± 2.1 % | 220 ± 45.3 10^9/l | 1.9 ± 0.39 mm/h | 3.1 ± 0.33 10^12/l | 3.47 ± 0.08* 10^9/l | 51.5 ± 1.3 % | 30 ± 1.8 % | 124 ± 11.0** 10^3/l | 2.1 ± 0.73 mm/h | 4.7 ± 0.21 10^12/l | 5.7 ± 0.22** 10^9/l | 72.1 ± 1.6% | 1.1 ± 0.4% | 13.3 ± 1.9 % | % mortality (herpes type 2 (HSV-2); 20 mg/kg daily for 14 days): 62.5%; Died/total in group (herpes type 2 (HSV-2); 20 mg/kg daily for 14 days): 10/16; ML (days) (T), mean life (herpes type 2 (HSV-2); 20 mg/kg daily for 14 days): 11.4 days; % mortality [1, 8]: 75%; % protection, (S) [1, 8]: 0%; Died/total in group [1, 8]: 12/16; HML (T), (days), harmonic mean life [1, 8]: 5.6 days; [Ca2+]i increased to, by mobilization of calcium from the intracellular stores (peritoneal macrophages; rat peritoneal macrophages at rest, 0.015 μmol/ml): 180 ± 19 nM; activation of the EGF receptor, by a factor of ([2]; cysteine 0.015 μmol/ml, periods of action from 1 hour to 4-8 hours, ratio to control): 8-10
6 | NCC(=O)O [glycine] | – | – | – | – | – | – | – | – | – | – | – | – | – | – | – | – | – | – | – | influence on the tyrosine kinase activity of the epidermal growth factor receptor ([2]; ligands 0.015 μmol/ml, coordination compounds 0.015 nmol/ml): barely detected
7 | CO[C@@H]1[C@@H](O[C@@H]2O[C@H](C)[C@@H](O[C@H]3C[C@@](C)(O)[C@@H](OC(=O)CC(C)C)[C@H](C)O3)[C@H](N(C)C)[C@H]2O)[C@@H](CC=O)C[C@@H](C)[C@@H](O)/C=C/C=C/C[C@@H](C)OC(=O)C[C@H]1OC(C)=O [josamycin] | – | – | – | – | – | – | – | – | – | – | – | – | – | – | – | – | – | – | – | % mortality [1, 9]: 37.5%; % protection, (S) [1, 9]: 37.5%; Died/total in group [1, 9]: 6/16; HML (T), (days), harmonic mean life [1, 9]: 12.35 days; % mortality [1, 10]: 12.5%; % protection, (S) [1, 10]: 62.5%; Died/total in group [1, 10]: 2/16; HML (T), (days), harmonic mean life [1, 10]: 83.3 days; % mortality [1, 11]: 0%; % protection, (S) [1, 11]: 75%; Died/total in group [1, 11]: 0/16; HML (T), (days), harmonic mean life [1, 11]: ∞
